Assay results published in patent US7354737B2, “Biomolecule transduction motif Sim-2-BTM and the use thereof” (ForHumanTech Co., Ltd., priority 2002, dated 2008).

Columns and labels:
[1] = tested on: Streptozotocin-Induced diabetic mice; assay: Blood glucose level lowering in Streptozotocin-Induced diabetic mice; assay type: in vivo; conditions: IP injection (1-10 mM)
Description: Blood glucose level lowering was examined using Sim-2-insulin and Sim-2-insulin-PR in the Example 13 with Streptozotocin-Induced diabetic mice. After 3 (three) days of abstinence, STZ (Sigma Chemical Co, St Louis, USA) (60 mg/kg) were […]. Insulin dependent diabetic mice were defined having 20 mmol/L or more blood glucose level together with other diabetic syndrome such as polyurea etc. All the in vivo studies were carried out after 2 weeks from the induction of diabetes. Recombinant insulin alone, Sim-2-insulin and Sim-2-insulin-PR in the Example 13 were, respectively, administered to the mice by IP injection (1-10 mM), and the blood glucose levels in the mice were monitored. In order to analyze the level of blood glucose, about 0.2 ml of blood was collected from each of the mice after anesthetizing them, and then the blood was subject to centrifuge at 13,000 rpm for 3 min. Next, about […] of serum was added to 1.5 ml of glucose kit agent (BiosystemSA, Barcelona, Spain) and the mixture was incubated at 37° C. for 10 min in water-bath. The level of blood glucose was detected with blood glucose analyzer (Quik-Lab, Ames, Miles Inc. Elkart, Ind., USA).

Jurkat T cells = assay: Transduction of insulin fusion proteins, detected using mAb to insulin; assay type: cell-based; conditions: detected with mAb to insulin
From the text: A fusion protein of Sim-2 BTM and biologically active functional regulatory protein, which was expressed and purified from bacteria, was reformed so as to have natural folding structure and functions. Specifically, the fusion protein isolated and purified from bacteria was transferred again into CHO (Chinese hamster ovary) cells, and then the fusion protein, which had complete folding structure and functions found in natural state, was isolated and purified. As for purified 2 (two) types of fusion proteins, biological activity regulating capabilities were examined. For this examination, an expression vector pSim-2-insulin was designed in order to prepare fusion protein between Sim-2 BTM and human insulin. In order to make this expression vector, a 5′ primer of SEQ. ID No.:17 comprising nucleic acid sequence of Xba I restriction enzyme, nucleic acid sequence of Sim-2 BTM and N-terminal nucleic acid sequence of human insulin, and a 3′ primer of SEQ. ID No.:18 comprising nucleic acid sequence of Hind m and C-terminal nucleic acid sequence of human insulin were prepared. Then, PCR amplification was carried out using human pancreas beta cells prepared in our laboratory, as a template, and using the primers above mentioned. […] Following the treatment, the transduction level of insulin into the cells was detected using mAb to the insulin and was compared.

[2] = tested on: HUVEC, HeLa, 293 and Jurkat cells; assay: Transduction of fusion protein across cell membrane, β-galactosidase staining and microscopy; assay type: cell-based; conditions: 0.5 μM, 30 min, 37° C., HeLa, 293, Jurkat cells
Description: HUVEC (ATCC:CRL-1730) (2×10^5), HeLa (ATCC:CCL-2) (2×10^5), and 293 (ATCC:CRL-1573) (2×10^5), which were incubated in 10% FBS (Fetal Bovine Serum) of DMEM, were respectively transferred to Lab-tek II chamber slides. Jurkat cells (ATCC:CRL-10915) (2×10^5) incubated in 10% FBS RPMI were transferred to poly-L-lysin coated slide. Each of the slides was treated with the purified 0.5 μM of Sim-2-β-galactosidase for 30 min at 37° C. in 5% CO2 incubator. And the supernatants were removed from the slides. The incubation mixtures were washed using ice-cold PBS four times and then were solidified with 2% formaldehyde solution for 10 min. After removing the solidified solutions, the mixtures were washed again using ice-cold PBS four times. Subsequently, the respective mixtures were treated with 700 μl of β-galactosidase staining solution (Roche. Co.) for 45 min at 37° C. in 5% CO2 incubator. Following the staining, the mixtures were washed with ice-cold PBS four times after removing the supernatants. Next, the mixtures were mounted with 70% glycerol on the microscope slides.

## Recombinant insulin: recombinant insulin not fused to Sim-2 BTM
[1]; after administration
  blood glucose level, After administration: 2320
[1]; before administration
  blood glucose level, Before administration: 5600
[1]; from Table 3
  lowering of blood glucose level: 50%
Jurkat T cells
  transduction level of insulin into Jurkat T cells: almost none

## β-gal: β-galactosidase reporter protein not fused to Sim-2
[2]
  transduction across the cell membranes (β-galactosidase staining): not transduced at all
